Assay results reported in patent US20080051379A1, “Compositions and Methods for the Treatment of Peripheral B-Cell Neoplasms” (Trustees of Boston University, priority 2004, published 2008).
pIC50: −log10 of the molar value.

What was measured:
[1] = system: GRE luciferase constructs transiently transfected into B-CLL cells; assay: GRE luciferase transactivation in B-CLL cells; type: cell-based, human
Protocol: (§1) B-CLL cells (FIG. 3A) or CCRF-CEM cells (FIG. 3B) were transiently transfected with a luciferase construct in which expression is regulated by GRE elements, followed by culture in 10 μM rolipram (R), 40 μM forskolin (Fsk), 1 μM hydrocortisone (HC), 1 mM Rp-8Br-cAMPS (Rp-8Br) or combinations of these agents. 12 hours after addition of the drugs, the relative luminescence of the samples was determined. The data shown are the mean of 8 experiments for B-CLL and two experiments for CCRF-CEM cells. The single asterisk denote a significant difference by paired student's t test between HC alone and either R/HC (FIG. 3A) or F/HC (FIG. 3B) (p<0.02). The double asterisk denotes a significant difference between Rp-8Br-cAMPS/HC and HC alone (p<0.02).
An MMTV GRE luciferase construct, originally created by Dr. R. Evans, was a gift from Dr. Remco Spanjaard (Dept. of Otolaryngology, Boston Medical Center)^29. 100 million B CLL cells in 200 μl of PBS were added to 500 μl of Nucleofector Solution D containing 30 μg of endotoxin-free (Qiagen) MMTV luciferase constructs. 100 μl was used per transfection using a Nucleofector electroporation instrument (Amaxa Biosystems, Koeln, Germany) using program U16. […] Up to six such aliquots of transfected cells were diluted in media and pooled, prior to distribution of 8 million cells/well in 48 well plates. Two hours after transfection, drugs, cytokines or vehicle alone were added to the transfected cells. 14 hours after transfection, samples were processed using a luciferase assay kit (Promega). Triplicate samples were analyzed with an MGM Instruments Optocomp I luminometer (Hamden, Conn.). Analysis of cell viability (trypan blue exclusion) and total protein (Pierce) verified that equivalent numbers of viable B-CLL cells were analyzed. 100 million CCRF-CEM cells were similarly transfected, cultured and analyzed except that Nucleofector program O17 was utilized. […] Data were analyzed using a two-sided paired t test for means.

[2] = system: GRE luciferase construct in CCRF-CEM cells; assay: GRE luciferase transactivation in CCRF-CEM cells; type: cell-based, human; settings: 40 μM forskolin or 10 μM rolipram
Protocol: as §1
An MMTV GRE luciferase construct, originally created by Dr. R. Evans, was a gift from Dr. Remco Spanjaard (Dept. of Otolaryngology, Boston Medical Center)^29. […] Triplicate samples were analyzed with an MGM Instruments Optocomp I luminometer (Hamden, Conn.). Analysis of cell viability (trypan blue exclusion) and total protein (Pierce) verified that equivalent numbers of viable B-CLL cells were analyzed. 100 million CCRF-CEM cells were similarly transfected, cultured and analyzed except that Nucleofector program O17 was utilized. […] Data were analyzed using a two-sided paired t test for means.

[3] = system: glucocorticoid-resistant subclone (CEM-R8); assay: MTS cell survival assay, CEM-R8; type: cell-based, human; settings: dexamethasone-resistant CCRF-CEM cells; 10 μM, 72 hours
Protocol: In FIG. 5A, the polyclonal parental cell line (CCRF-CEM), the single cell-derived glucocorticoid-resistant subclone (CEM-R8) and the single cell-derived glucocorticoid-sensitive subclone (CEM-S2) were cultured for 72 hours in the presence of vehicle (ETOH) or dexamethasone at the concentrations indicated and cell viability was assessed by the MTS assay as described in Methods. In FIG. 5B, the glucocorticoid-resistant subclone (CEM-R8) and the glucocorticoid-sensitive subclone (CEM-S2) were cultured for 72 hours in the presence of hydrocortisone (HC) (10 μM HC for the CEM-R8 cells and 1 μM HC for the CEM-S2 cells), 10 μM forskolin (Fsk), 10 μM rolipram (Rol), or combinations of these agents as indicated, and cell viability was assessed by the MTS assay as described in Methods. FIG. 5C: The glucocorticoid-resistant subclone (CEM-R8) and the glucocorticoid-sensitive subclone (CEM-S2) were cultured for 72 hours in the presence of varying amounts of dibutyryl cAMP (db-cAMP) in the absence (−HC) or presence (+HC) of 1 μM hydrocortisone as indicated, and cell viability was assessed by the MTS assay as described in Methods. […]
Hoechst 33342 and DiOC6(3) apoptosis assays were performed as previously described^22,28. […] The absorbance (O.D.) of the formazan product was determined at 492 nm using a plate reader (Titertek Multiscan Plus, Labsystems). […]

[4] = system: PDE4A, PDE4B or PDE4D expression in B-CLL cells; assay: Western analysis of PDE4 isoforms, B-CLL cells; type: cell-based, human; settings: 10 μM rolipram, 18 hours
Protocol: B-CLL and CCRF-CEM cells were incubated for 18 hours with media alone, 10 μM rolipram, 10 μM forskolin (Fsk), 1 μM hydrocortisone (HC), or the same concentration of rolipram combined with 1 μM hydrocortisone (Roli+HC) or 10 μM forskolin (Roli+Fsk). Lysates of the cells were then assessed for expression of PDE4A, PDE4B or PDE4D by Western analysis. Equal loading of samples was verified by immunoblotting for tubulin.
30 million B-CLL cells or 10 million CCRF-CEM cells were incubated for 18 hours in media alone or with the addition of drugs as indicated in the text. Western analysis was then carried out as previously described^30. The PDE4A (66C12H), PDE4B (96G7A) and PDE4D (61D10E) antibodies were kind gifts from Dr. Sharon Wolda (ICOS, Bothell, Wash.) and have been previously described^30 31.

[5] = system: PDE4; settings: cited from earlier work

SMILES: COc1ccc(C2CNC(=O)C2)cc1OC1CCCC1 (stereo not shown) [rolipram, 4-(3-cyclopentyloxy-4-methoxyphenyl)-2-pyrrolidone]
- augmentation of hydrocortisone-induced transactivation (average) ([1]; 10 μM rolipram + 1 μM hydrocortisone, 5 patients, p<0.02): 33%
- augmentation of GRE transactivation by rolipram itself ([1]; 10 μM rolipram alone, 7/8 experiments, not statistically significant (p<0.23)): 10%
- GRE transactivation as a single agent [2]: none
- effect on cell viability as single agent [3]: no discernable effect
- expression of 63 and 68 kDa form of PDE4D [4]: either no or very low level rolipram-induced expression
- expression of 63 and 68 kDa forms of PDE4B [4]: rolipram-inducible expression
